Data on 6 molecules can be found in patent publication US8802104B2, “Parathyroid hormone receptor activation and stem and progenitor cell expansion” (The General Hospital Corporation, priority 2002, dated 2014).

Test [1] relates to C-1498/GFP cells. Briefly: Recombinant OPN on C-1498/GFP leukemia cell growth in vitro. Format: cell-based, mouse. Here is the method: (§1) To investigate the role of OPN as a candidate molecule, it was explored whether recombinant OPN is sufficient to reproduce the growth inhibition of leukemia cells in vitro. To this end, C-1498/GFP cells were cultured in wells with either (a) no OPN, (b) with 5 and 10 ug/ml of OPN. […] It was therefore concluded that recombinant osteopontin is sufficient to limit leukemic cell expansion. […] Given that PTH increases osteoblast production of OPN, it is likely that OPN participates in the preferential support of normal over leukemic cells in vivo with PTH stimulation of the stem cell niche.

Test [2] relates to C-1498/GFP cells. The experiment in a line: Annexin staining of leukemia cells cultured with OPN. Format: cell-based, mouse. The conditions noted are these: FIG. 13a. The method, then:
as §1

Test [3] deals with PTH-stimulated adenylate cyclase. The conditions noted are these: cited from earlier work.
In a further test the target is T1, renal PTH receptors (Homo sapiens, UniProt Q03431).
T1 sequence (Q03431 27-593): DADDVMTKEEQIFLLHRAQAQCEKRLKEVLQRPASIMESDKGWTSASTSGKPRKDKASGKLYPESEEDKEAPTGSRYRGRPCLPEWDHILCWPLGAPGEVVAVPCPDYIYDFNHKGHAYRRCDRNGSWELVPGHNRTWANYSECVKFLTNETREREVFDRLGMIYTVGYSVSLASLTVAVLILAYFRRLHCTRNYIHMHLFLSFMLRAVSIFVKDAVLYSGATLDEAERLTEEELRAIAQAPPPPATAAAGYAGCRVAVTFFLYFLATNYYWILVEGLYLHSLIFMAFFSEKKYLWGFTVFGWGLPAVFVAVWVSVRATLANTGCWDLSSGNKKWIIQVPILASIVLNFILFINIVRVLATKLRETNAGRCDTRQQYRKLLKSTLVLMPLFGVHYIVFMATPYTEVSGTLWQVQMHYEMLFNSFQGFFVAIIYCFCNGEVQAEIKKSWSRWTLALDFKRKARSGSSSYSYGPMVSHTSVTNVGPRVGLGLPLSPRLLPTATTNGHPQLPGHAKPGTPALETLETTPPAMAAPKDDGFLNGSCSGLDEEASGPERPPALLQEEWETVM
To be noted: cited from earlier work.

The next test relates to peripheral blood cells. Briefly: Complete blood count during cyclophosphamide chemotherapy cycles. The test is classed as in vivo, C57Bl/6 mice. To be noted: cyclophosphamide 5 mg per cycle, G-CSF 5 μg/day 8 days. The method, then: (§2) Wild-type C57Bl/6 mice were treated with 5 mg of cyclophosphamide (Day 1). The day following injection of cyclophosphamide, mice received no treatment or were treated for 8 days with G-CSF (5 μg/day), 11 days with PTH (80 μg/kg/day) or a combination of G-CSF plus PTH. Mice that received a combination of both G-CSF and PTH received G-CSF treatment for 8 days and PTH treatment for 11 days. Following this treatment protocol, mice were injected with cyclophosphamide on Day 15 and treated with G-CSF, PTH or G-CSF and PTH as described above. The treatment protocol was then repeated for two subsequent cycles, as outlined in FIG. 7.
During the course of the four treatment cycles, peripheral blood complete blood count (CBC) analysis was performed every 2 to 3 days. This analysis involved the collection of 100 μl of peripheral blood from the tail vein of the mice, which was subsequently analyzed on a HEMAVET 850FS (Drew Scientific). To avoid any deleterious effects from repeated tail bleeds, each individual mouse was only bled once per week.

Test [4] has as its system HSC pool in the bone marrow. The experiment in a line: HSC pool in bone marrow following chemotherapy (competitive transplant). Format: in vivo, C57Bl/6 mice. The conditions noted are these: G-CSF alone. Here is the method: as §2
(§3) At the end of the four-cycle treatment with cyclophosphamide and G-CSF/PTH, the bone marrow was removed from the treated mice and competitive transplants into B6.SJL mice were performed to measure the maintenance of the HSC pool in the bone marrow. This involved mixing 5×10^5 BM cells from the treated C57Bl/6 mice (CD45.2) with 2.5×10^5 BM cells from the B6.SJL mice (CD45.1). These cells were then injected into lethally irradiated B6.SJL mice. Eighteen weeks following injection of the cells, peripheral blood was collected from the mice and the relative contribution of the HSCs from the treated animals was measured by flow cytometry for the CD45.2^+ cells. To assess the ability of the HSCs to be mobilized into the peripheral circulation, one week following treatment mice were mobilized with G-CSF (5 μg/day) for 5 days. Peripheral blood (300 μl) was collected from these mice and mixed with 2.5×10^5 BM cells from a B6.SJL mouse. These cells were injected into a lethally irradiated B6.SJL host. Eighteen weeks following injection of the cells, peripheral blood was collected from the mice and the relative contribution of the HSCs from the treated animals was measured by flow cytometry for the CD45.2^+ cells.

The test system of test [5] is HSCs in the peripheral circulation. The experiment in a line: G-CSF mobilization of HSCs into peripheral circulation after chemotherapy. The test is classed as in vivo, C57Bl/6 mice. To be noted: supportive growth factor therapy alone during chemotherapy. The method, then: as §2, §3

Turning to Osteopontin [OPN], in the test with C-1498/GFP cells [1] (5 and 10 ug/ml OPN, FIG. 13b), the “inhibition of leukemia cell growth” value is reported as “sufficient to reproduce the inhibition of leukemia cell growth”. In the test with C-1498/GFP cells [1] (leukemic vs normal cells), the “relative ability to limit primitive cell expansion” value is “greater in leukemic compared to normal cells”. Further, the “Annexin staining (mode of effect)” value in the test with C-1498/GFP cells [2] is on record as “growth inhibition rather than accelerated apoptosis”.

On to “PTH(1-25) (SVSEIQLMHNLGKHLNSMERVEWLR; Parathyroid hormone; UniProt P01270 32-56, looked up, fragment) [carboxyl-terminally truncated PTH fragment]”, for which the agonist activity result in test [3] is “inactive”.

As for PTH(1-34), the agonist activity result in test [3] is recorded as “full agonist”.

For “PTH(25-34) (RKKLQDVHNF; Parathyroid hormone; UniProt P01270 56-65, looked up, fragment)”, in the test with renal PTH receptors, the “receptor binding / affinity” value was “weak receptor binding activity”.

Consider [Tyr^34]bPTH(7-34)NH2, for which the agonist activity entry in test [3] was “does not have any agonist activity”. Also, the “receptor binding / affinity” value on renal PTH receptors is recorded as “moderate affinity”.

B1: granulocyte colony-stimulating factor (protein, UniProt P09919 31-207, looked up)
Granulocyte …: TPLGPASSLPQSFLLKCLEQVRKIQGDGAALQEKLVSECATYKLCHPEELVLLGHSLGIPWAPLSSCPSQALQLAGCLSQLHSGLFLYQGLLQALEGISPELGPTLDTLQLDVADFATTIWQQMEELGMAPALQPTQGAMPAFASAFQRRAGGVLVASHLQSFLEVSYRVLRHLAQP
notes: growth factor administered to augment recovery from chemotherapy-induced neutropenia
As for B1, in the test on peripheral blood cells, the “neutrophils count (NE) following chemotherapy” value is listed as “significant increases” and the “white blood count (WBC) following chemotherapy” value is reported as “significant increases”. In addition, the “HSC pool in the bone marrow following chemotherapy” value in test [4] is given as “significant depletion of the HSC pool”. In addition, the “mobilization of HSCs into the peripheral circulation” value in test [5] was “little to no mobilization”.
